Source: patent US5061794A, “Cephalosporin derivatives, and antibacterial agents” (priority 1986, dated 1991)
Where two headings read alike, the source gives them in different places.

Key:
A. calcoaceticus No. 4 = test: in vitro antibacterial activity, agar plate dilution method (MIC); type: cell-based, Acinetobacter calcoaceticus; details: Acinetobacter calcoaceticus, NO.4, 16 h, 10^6 CFU/ml
In short: (§1)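 Overnight Mueller Hinton broth cultures were inoculated onto Mueller Hinton agar containing serial antibiotic concentrations at 10^6 CFU/ml. Plates were incubated at 37° C. for 16 hours, and MIC (μg/ml) was recorded.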

Ps. aeruginosa IF03445 = test: as above; type: cell-based, Pseudomonas aeruginosa; details: Pseudomonas aeruginosa, 10^6 CFU/ml
In short: as §1

Ps. aeruginosa AK 109 = test: as above; type: cell-based, Pseudomonas aeruginosa; details: Pseudomonas aeruginosa, AK109, 16 h, read-out: Minimum Inhibitory Concentration (MIC)
In short: as §1

Ps. aeruginosa AKR17 = test: as above; type: cell-based, Pseudomonas aeruginosa; details: Pseudomonas aeruginosa, read-out: Minimum Inhibitory Concentration (MIC)
In short: as §1

Ps. cepacia 23 = test: as above; type: cell-based, Pseudomonas cepacia; details: Burkholderia cepacia, 16 h; Ps. cepacia 23; 10^6 CFU/ml; read-out: Minimum Inhibitory Concentration (MIC)
In short: as §1

E. coli CSH(RE45) = test: microbe, parasite or virus in culture; type: cell-based; details: Escherichia coli, 16 h, read-out: Minimum Inhibitory Concentration (MIC), *E. coli CSH(RE45), lactamase-producing strain; 10^6 CFU/ml
In short: as §1

E. coli CSH2 (RK1) = test: microbe, parasite or virus in culture; type: cell-based; details: Escherichia coli, 16 h, read-out: Minimum Inhibitory Concentration (MIC), *E. coli CSH2 (RK1), lactamase-producing strain; 10^6 CFU/ml
In short: as §1

K. pneumoniae No. 42 = test: in vitro antibacterial activity, agar plate dilution method (MIC); type: cell-based; details: Klebsiella pneumoniae, NO.42, 16 h, read-out: Minimum Inhibitory Concentration (MIC), *K. pneumoniae No. 42, lactamase-producing strain; 10^6 CFU/ml
In short: as §1

S. aureus 209P NIHJ-JC1 = test: as above; type: cell-based; details: Staphylococcus aureus, 16 h
In short: as §1

K. oxytoca GN10650 = test: as above; type: cell-based; details: Klebsiella oxytoca, GN10650, 16 h, read-out: Minimum Inhibitory Concentration (MIC), *K. oxytoca GN10650, lactamase-producing strain; 10^6 CFU/ml
In short: as §1

E. cloacae Nek 39 = test: as above; type: cell-based; details: Enterobacter cloacae, NEK39, 16 h, read-out: Minimum Inhibitory Concentration (MIC), *E. cloacae Nek 39, lactamase-producing strain; 10^6 CFU/ml
In short: as §1

S. marcescens IAM 1184 = test: as above; type: cell-based; details: Serratia marcescens, IAM1184, 16 h, read-out: Minimum Inhibitory Concentration (MIC)
In short: as §1

M. morganii GN5407 = test: as above; type: cell-based; details: Morganella morganii, GN5407, 16 h, read-out: Minimum Inhibitory Concentration (MIC), *M. morganii GN5407, lactamase-producing strain; 10^6 CFU/ml
In short: as §1

K. pneumoniae PCI-602 = test: as above; type: cell-based; details: Klebsiella pneumoniae, PCI602, 16 h, read-out: Minimum Inhibitory Concentration (MIC), K. pneumoniae PCI-602; 10^6 CFU/ml
In short: as §1

P. vulgaris No. 33 = test: as above; type: cell-based; details: Proteus vulgaris, NO.33, 16 h, read-out: Minimum Inhibitory Concentration (MIC), *P. vulgaris No. 33, lactamase-producing strain; 10^6 CFU/ml
In short: as §1

S. marcescens No. 16-2 = test: as above; type: cell-based; details: Serratia marcescens, NO.162, 16 h, read-out: Minimum Inhibitory Concentration (MIC), *S. marcescens No. 16-2, lactamase-producing strain; 10^6 CFU/ml
In short: as §1

E. coli NIHJ JC2 = test: as above; type: cell-based; details: Escherichia coli, NIHJJC2, 16 h, read-out: Minimum Inhibitory Concentration (MIC), E. coli NIHJ JC2, 10^6 CFU/ml, 37° C.
In short: as §1

E. coli GN5482 = test: as above; type: cell-based; details: Escherichia coli, GN5482, 16 h, read-out: Minimum Inhibitory Concentration (MIC)
In short: as §1

P. vulgaris HX-19 = test: as above; type: cell-based; details: Proteus vulgaris, HX19, 16 h, P. vulgaris HX-19; 10^6 CFU/ml; read-out: Minimum Inhibitory Concentration (MIC)
In short: as §1

E. cloacae 963 = test: as above; type: cell-based; details: 10^6 CFU/ml
In short: as §1

[1] = read-out: Minimum Inhibitory Concentration (MIC), A. calcoaceticus No. 4
[2] = IF03445, 16 h, read-out: Minimum Inhibitory Concentration (MIC), Ps. aeruginosa IF03445
[3] = 16 h, Ps. aeruginosa AKR17, 10^6 CFU/ml
[4] = read-out: Minimum Inhibitory Concentration (MIC), S. aureus 209P NIHJ-JC1, 10^6 CFU/ml, 37° C., 16 hours
[5] = Enterobacter cloacae, 963, 16 h, read-out: Minimum Inhibitory Concentration (MIC), E. cloacae 963
[6] = 16 h, Ps. aeruginosa IF03445, read-out: Minimum Inhibitory Concentration (MIC)
[7] = Ps. aeruginosa AK 109, 10^6 CFU/ml
[8] = S. marcescens IAM 1184, 10^6 CFU/ml
[9] = Enterobacter cloacae, 16 h, E. cloacae 963, read-out: Minimum Inhibitory Concentration (MIC)

CCO/N=C(\C(=O)N[C@@H]1C(=O)N2C(C(=O)O)=C(CSc3nnc(-c4ccc(O)c(O)c4)o3)CS[C@H]12)c1csc(N)n1 [Ex. 5, sodium 7β-[2-(2-aminothiazol-4-yl)-2-ethoxyiminoacetamido]-3-[5-(3,4-dihydroxyphenyl)-1,3,4-oxadiazol-2-yl]thiomethyl-3-cephem-4-carboxylate]
MIC (A. calcoaceticus No. 4; [1]): 0.1 µg/mL | MIC (Ps. aeruginosa IF03445; [2]): 0.39 µg/mL | MIC (Ps. aeruginosa AK 109): 0.39 µg/mL | MIC (Ps. aeruginosa AKR17; [3]): > 100 µg/mL | MIC (Ps. cepacia 23): < 0.006 µg/mL | MIC (E. coli CSH(RE45)): 0.0125 µg/mL | MIC (E. coli CSH2 (RK1)): 0.0125 µg/mL | MIC (K. pneumoniae No. 42): 0.05 µg/mL | MIC (S. aureus 209P NIHJ-JC1; [4]): 0.78 µg/mL | MIC (K. oxytoca GN10650): 0.78 µg/mL | MIC (E. cloacae Nek 39): 0.1 µg/mL | MIC (S. marcescens IAM 1184): 0.0125 µg/mL | MIC (M. morganii GN5407): 0.025 µg/mL | MIC (K. pneumoniae PCI-602): < 0.006 µg/mL | MIC (P. vulgaris No. 33): 0.025 µg/mL | MIC (S. marcescens No. 16-2): 0.78 µg/mL | MIC (E. coli NIHJ JC2): 0.05 µg/mL | MIC (E. coli GN5482): 0.39 µg/mL | MIC (P. vulgaris HX-19): < 0.006 µg/mL | MIC (E. cloacae 963; [5]): 0.0125 µg/mL

CCO/N=C(\C(=O)N[C@@H]1C(=O)N2C(C(=O)O)=C(CSc3nnc(-c4ccc(OC(C)=O)c(OC(C)=O)c4)o3)CS[C@H]12)c1csc(N)n1 [Ex. 6, sodium 3-[5-(3,4-diacetoxyphenyl)-1,3,4-oxadiazol-2-yl]thiomethyl-78-[2-(2-aminothiazol-4-yl)-2-ethoxyiminoacetamido]-3-cephem-4-carboxylate]
MIC (A. calcoaceticus No. 4; [1]): 0.1 µg/mL | MIC (Ps. aeruginosa IF03445; [6]): 0.2 µg/mL | MIC (Ps. aeruginosa AK 109; [7]): 0.1 µg/mL | MIC (Ps. aeruginosa AKR17; [3]): > 100 µg/mL | MIC (Ps. cepacia 23): 0.05 µg/mL | MIC (E. coli CSH(RE45)): 0.78 µg/mL | MIC (E. coli CSH2 (RK1)): 0.0125 µg/mL | MIC (K. pneumoniae No. 42): 0.025 µg/mL | MIC (S. aureus 209P NIHJ-JC1; [4]): 1.56 µg/mL | MIC (K. oxytoca GN10650): 0.39 µg/mL | MIC (E. cloacae Nek 39): 0.05 µg/mL | MIC (S. marcescens IAM 1184; [8]): < 0.006 µg/mL | MIC (M. morganii GN5407): 0.0125 µg/mL | MIC (K. pneumoniae PCI-602): < 0.006 µg/mL | MIC (P. vulgaris No. 33): 0.0125 µg/mL | MIC (S. marcescens No. 16-2): 0.78 µg/mL | MIC (E. coli NIHJ JC2): 0.05 µg/mL | MIC (E. coli GN5482): 0.39 µg/mL | MIC (P. vulgaris HX-19): < 0.006 µg/mL | MIC (E. cloacae 963; [9]): < 0.006 µg/mL

CC(C)O/N=C(\C(=O)N[C@@H]1C(=O)N2C(C(=O)O)=C(CSc3nnc(-c4ccc(O)c(O)c4)o3)CS[C@H]12)c1csc(N)n1 [Ex. 7, sodium 78-[2-(2-aminothiazol-4-yl)-2-isopropoxyiminoacetamido]-3-[5-(3,4-dihydroxyphenyl)-1,3,4-oxadiazol-2-yl]thiomethyl-3-cephem-4-carboxylate]
MIC (A. calcoaceticus No. 4; [1]): 0.1 µg/mL | MIC (Ps. aeruginosa IF03445; [2]): 0.39 µg/mL | MIC (Ps. aeruginosa AK 109; [7]): 0.2 µg/mL | MIC (Ps. aeruginosa AKR17; [3]): 50 µg/mL | MIC (Ps. cepacia 23): < 0.006 µg/mL | MIC (E. coli CSH(RE45)): 1.56 µg/mL | MIC (E. coli CSH2 (RK1)): < 0.006 µg/mL | MIC (K. pneumoniae No. 42): 0.025 µg/mL | MIC (S. aureus 209P NIHJ-JC1; [4]): 1.56 µg/mL | MIC (K. oxytoca GN10650): 0.1 µg/mL | MIC (E. cloacae Nek 39): 0.05 µg/mL | MIC (S. marcescens IAM 1184; [8]): 0.025 µg/mL | MIC (M. morganii GN5407): 0.0125 µg/mL | MIC (K. pneumoniae PCI-602): < 0.006 µg/mL | MIC (P. vulgaris No. 33): 0.0125 µg/mL | MIC (S. marcescens No. 16-2): 1.56 µg/mL | MIC (E. coli NIHJ JC2): 0.1 µg/mL | MIC (E. coli GN5482): 0.39 µg/mL | MIC (P. vulgaris HX-19): < 0.006 µg/mL | MIC (E. cloacae 963; [9]): 0.0125 µg/mL

C=CCO/N=C(\C(=O)N[C@@H]1C(=O)N2C(C(=O)O)=C(CSc3nnc(-c4ccc(O)c(O)c4)o3)CS[C@H]12)c1csc(N)n1 [Ex. 8, sodium 7β-[2-allyloxyimino-2-(2-aminothiazol-4-yl)acetamido]-3-[5-(3,4-dihydroxyphenyl)-1,3,4-oxadiazol-2-yl]thiomethyl-3-cephem-4carboxylate]
MIC (A. calcoaceticus No. 4; [1]): 0.1 µg/mL | MIC (Ps. aeruginosa IF03445; [6]): 0.2 µg/mL | MIC (Ps. aeruginosa AK 109; [7]): 0.2 µg/mL | MIC (Ps. aeruginosa AKR17; [3]): 100 µg/mL | MIC (Ps. cepacia 23): 0.025 µg/mL | MIC (E. coli CSH(RE45)): 0.78 µg/mL | MIC (E. coli CSH2 (RK1)): < 0.006 µg/mL | MIC (K. pneumoniae No. 42): 0.05 µg/mL | MIC (S. aureus 209P NIHJ-JC1; [4]): 0.78 µg/mL | MIC (K. oxytoca GN10650): 3.12 µg/mL | MIC (E. cloacae Nek 39): 0.05 µg/mL | MIC (S. marcescens IAM 1184; [8]): 0.0125 µg/mL | MIC (M. morganii GN5407): 0.0125 µg/mL | MIC (K. pneumoniae PCI-602): < 0.006 µg/mL | MIC (P. vulgaris No. 33): 0.0125 µg/mL | MIC (S. marcescens No. 16-2): 1.56 µg/mL | MIC (E. coli NIHJ JC2): 0.1 µg/mL | MIC (E. coli GN5482): 0.39 µg/mL | MIC (P. vulgaris HX-19): < 0.006 µg/mL | MIC (E. cloacae 963; [9]): < 0.006 µg/mL

Nc1nc(/C(=N/OC2(C(=O)O)CC2)C(=O)N[C@@H]2C(=O)N3C(C(=O)O)=C(CSc4nnc(-c5ccc(O)c(O)c5)o4)CS[C@H]23)cs1 [Ex. 12, disodium 7β-[2-(2-aminothiazol-4-yl)-2-(1-carboxylate-1-cyclopropoxyimino)acetamido]-3-[5-(3,4-dihydroxvphenyl)-1,3,4-oxadiazol-2-vl]thiomethyl-3-cephem-4-carboxylate]
MIC (A. calcoaceticus No. 4; A. calcoaceticus No. 4, read-out: Minimum Inhibitory Concentration (MIC)): 0.05 µg/mL | MIC (Ps. aeruginosa IF03445; [2]): 0.39 µg/mL | MIC (Ps. aeruginosa AK 109; [7]): 0.2 µg/mL | MIC (Ps. aeruginosa AKR17; AKR17, 16 h): 3.12 µg/mL | MIC (Ps. cepacia 23): < 0.006 µg/mL | MIC (E. coli CSH(RE45)): < 0.006 µg/mL | MIC (E. coli CSH2 (RK1)): < 0.006 µg/mL | MIC (K. pneumoniae No. 42): 0.025 µg/mL | MIC (S. aureus 209P NIHJ-JC1; read-out: Minimum Inhibitory Concentration (MIC)): 12.5 µg/mL | MIC (K. oxytoca GN10650): 0.025 µg/mL | MIC (E. cloacae Nek 39): 0.025 µg/mL | MIC (S. marcescens IAM 1184; [8]): 0.0125 µg/mL | MIC (M. morganii GN5407): 0.025 µg/mL | MIC (K. pneumoniae PCI-602): < 0.006 µg/mL | MIC (P. vulgaris No. 33): 0.025 µg/mL | MIC (S. marcescens No. 16-2): 1.56 µg/mL | MIC (E. coli NIHJ JC2): 0.05 µg/mL | MIC (E. coli GN5482): 0.2 µg/mL | MIC (P. vulgaris HX-19): < 0.006 µg/mL | MIC (E. cloacae 963; [5]): 0.05 µg/mL
